From ChEMBL document CHEMBL5725658, “Spirocycle compounds and methods of making and using same” (2018)

Molecular target: T1, Fatty-acid amide hydrolase 1 (Mus musculus, UniProt O08914)
T1 sequence (O08914 whole entry): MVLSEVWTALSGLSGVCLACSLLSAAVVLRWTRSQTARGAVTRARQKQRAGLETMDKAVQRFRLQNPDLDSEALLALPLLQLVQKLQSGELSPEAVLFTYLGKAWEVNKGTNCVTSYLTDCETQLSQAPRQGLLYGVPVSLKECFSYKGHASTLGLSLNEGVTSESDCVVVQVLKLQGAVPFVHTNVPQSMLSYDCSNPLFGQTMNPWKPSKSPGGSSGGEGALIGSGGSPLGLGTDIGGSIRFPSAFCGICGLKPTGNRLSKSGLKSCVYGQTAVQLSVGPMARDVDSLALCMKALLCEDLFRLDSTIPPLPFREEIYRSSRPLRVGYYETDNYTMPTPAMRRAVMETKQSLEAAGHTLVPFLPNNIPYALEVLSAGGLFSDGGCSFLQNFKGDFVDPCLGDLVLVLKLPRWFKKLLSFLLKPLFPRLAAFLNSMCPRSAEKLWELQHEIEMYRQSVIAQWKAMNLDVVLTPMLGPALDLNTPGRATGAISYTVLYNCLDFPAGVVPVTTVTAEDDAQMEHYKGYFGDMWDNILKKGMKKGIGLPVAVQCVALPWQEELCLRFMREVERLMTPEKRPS
Assay: In Vitro Competitive Activity-Based Protein Profiling: Proteomes (mouse brain membrane fraction or cell lysates) (50 μL, 1.0 mg/mL total protein concentration) were preincubated with varying concentrations of inhibitors at 37° C. After 30 min, FP¿Rh (1.0 μL, 50 μM in DMSO) was added and the mixture was incubated for another 30 min at 37° C. Reactions were quenched with SDS loading buffer (50 μL-4×) and run on SDS-PAGE. Following gel imaging, serine hydrolase activity was determined by measuring fluorescent intensity of gel bands corresponding to MAGL, ABHD6 and FAAH using ImageJ 1.43u software.

- IC50: > 1000 nM
Structure (SMILES): O=C(OC(C(F)(F)F)C(F)(F)F)N1CCC2(CCCN2Cc2ccc(OCCN3CCOCC3)cc2)CC1
